Test results as given in publication PMC7696940, “Effects of Rationally Designed Physico-Chemical Variants of the Peptide PuroA on Biocidal Activity towards Bacterial and Mammalian Cells” (International Journal of Molecular Sciences, 2020).
Converted amounts (≈) assume the structure as drawn. “And” between values parts separate entries of the source, which are not always exact repeats. Equal entries are not always repeated. Where no end group is shown, it is not given here.

How the values were obtained:
P. aeruginosa ATCC9027 = format: cell-based, Pseudomonas aeruginosa; settings: MHB, 37 °C overnight, A595; mode of three independent experiments
Procedure, shortened: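 Broth microdilution MICs in Mueller-Hinton broth, ~1×10^6 CFU/mL inoculum, peptides at final 250–0.5 μg/mL, overnight at 37 °C, growth by A595; triplicate, mode reported. For salt tolerance, S. aureus and E. coli were tested in MHB containing 0, 50, 100 or 150 mM NaCl.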

[1] = tested on: porcine trypsin and proteinase K; assay: Proteases stability assay; format: in vitro ADME, porcine; Tritirachium album; settings: 1000 µg peptide with 50 µg protease (20:1 w/w), porcine trypsin or proteinase K, PBS pH 7.4, 37 °C, 3 h; read-out activity of supernatant on E. coli and S. aureus; triplicate
Procedure, shortened: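 Peptide incubated with trypsin or proteinase K (20:1 w/w) in PBS pH 7.4 at 37 °C for 3 h, then heat-inactivated (70 °C, 5 min) and centrifuged. Supernatant tested for residual antibacterial activity against E. coli and S. aureus, in triplicate.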

MRSA M173525 [2] = format: cell-based, methicillin-resistant Staphylococcus aureus; settings: clinical isolate; MHB, 37 °C overnight; mode of three independent experiments
Description: (§1) The activity of peptides was determined against the Gram-positive Staphylococcus aureus (ATCC 25923), and the Gram-negative Escherichia coli (ATCC 25922) and Pseudomonas aeruginosa (ATCC 9027) bacteria. Selected peptides were also tested against two clinical isolates of methicillin-resistant Staphylococcus aureus (MRSA), M173525 and M180920, kindly provided by Dr P. B. Ward (Microbiology Department, Austin and Repatriation Medical Centre, Heidelberg West, Victoria, Australia). The Minimum inhibitory concentration (MIC) of peptides was determined by the microtitre broth dilution method, as described in Phillips et al.. Briefly, bacteria were grown in Mueller-Hinton Broth (MHB) at 37 °C overnight with shaking (200 rpm). The cultures were adjusted to 0.5 McFarland turbidity standard (approximately 1 × 10^8 colony forming units (CFU)/mL), then diluted 1:100 in MHB (1 × 10^6 CFU/mL). A total of 75 μL of these suspensions were mixed with 25 μL of peptide solutions (final concentrations 250 to 0.5 μg/mL) and the microtitre plates incubated overnight at 37 °C. Positive growth controls (inoculum and MHB, with no peptide) and sterility controls (0.01% glacial acetic) were also included. Post-incubations, the absorbance of cultures at 595 nm was measured using a microplate reader (POLARstar Omega, Germany). […] To evaluate salt sensitivity of peptides up to physiological levels (150 mM NaCl), overnight cultures of S. aureus and E. coli adjusted to 0.5 McFarland turbidity standard were diluted 1:100 in MHB containing 0, 50, 100 or 150 mM NaCl, and the MICs of peptides determined as above. All tests were conducted in triplicate. The results are shown as the mode of values obtained.

MRSA M180920 = format: cell-based, methicillin-resistant Staphylococcus aureus; settings: clinical isolate; MHB, 37 °C overnight; mode of three independent experiments
Description: as §1

MRSA M173525 [3] = assay: Inhibition of initial cell attachment (CV and MTT assays); format: cell-based, methicillin-resistant Staphylococcus aureus; settings: polystyrene, 24 h, 37 °C, triplicate
Description: The effects of PuroA and other selected peptides (based on their antibacterial activity) on both the initial cell attachment and 6 h preformed biofilms of MRSA on polystyrene were tested as described by Jadhav et al., at their respective 0.5 × MIC, 1 × MIC, and 2 × MIC concentrations. All tests were conducted in triplicate. For testing the inhibition of initial cell attachment, 100 μL of peptide solutions were added to the microtitre plates, then mixed with 100 μL of M173525 cell suspension (1 × 10^6 CFU/mL, cultured in tryptic soy broth medium (TSB; Oxoid) containing 1% glucose), or 100 μL of sterile MilliQ water as negative control. The plates were incubated at 37 °C for 24 h to allow cell attachment. The biofilm formation was then assessed using CV and MTT assays. […] Peptide solutions (100 μL) were then added, the plates incubated at 37 °C for 1 h and the biofilms assessed.
The assay works as an indicator of attached living and non-living biomass. Indirect assessment of cell attachment of MRSA was estimated using the modified CV assay as per Jadhav et al.. After incubations of the plates (for 24 h or 1 h, as above), the culture medium from each well was removed gently and any non-adherent bacteria removed by washing the plates five times with sterile distilled water (dH2O). The plates were air-dried, then oven-dried at 60 °C for 1 h. The biofilm cells in the wells were stained with 100 μL of 1% CV and incubated for 15 min at room temperature. Excess stain was removed by washing the plates three times with sterile dH2O. Ethanol (95%, 125 µL) was transferred to each well to de-stain the cells. The de-staining solution from each well was then transferred to a new plate and its absorbance measured at 595 nm. The percentage inhibition of biomass formation concentration was calculated as: ((OD595 nm control well without peptide − OD5 95 well with peptide)/OD595 nm control well without peptide) × 100. All tests were conducted in triplicate.
A modified methylthiazotetrazolium (MTT) (3-[4,5-dimethyl thiazol-2-yl]-2, 5-diphenyltetrazolium bromide) reduction assay was used, wherein the blue product (MTT salt reduced to formazan by dehydrogenases) is taken as a respiratory indicator of live cells. Briefly, MTT (Sigma-Aldrich, Gillingham, UK) was dissolved in PBS to 5 mg/mL. After incubations of plates (for 24 h or 1 h, as above), the culture medium was gently removed and the plates air-dried. PBS (100 μL) and MTT (5 µL, 5 mg/mL) were added to each well and the plates incubated for 3 h at 37 °C. The insoluble purple product was dissolved in 100 µL of dimethyl sulphoxide (DMSO, Sigma-Aldrich, Gillingham, UK) and the absorbance measured at 570 nm. The % inhibition of metabolic activity was calculated as: ((OD570 nm control well without peptide − OD570 nm well with peptide)/OD570 nm control well without peptide) × 100. All tests were conducted in triplicate.

C. albicans FRR 5580 = format: cell-based, Candida albicans; settings: PDB, overnight; mode of three independent experiments
Procedure, shortened: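 Yeast grown overnight in potato dextrose broth at 30 °C to exponential phase, adjusted to 0.5 McFarland and diluted to 0.5 − 2 × 10^3 cells/mL in PDB; peptides mixed with suspension (1:3 by volume). Incubated overnight, absorbance read; triplicate.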

Molecule	MIC P. aeruginosa ATCC9027 (P. aeruginosa ATCC9027) [µg/mL]	Protease Stability [1]	MIC MRSA M173525 (MRSA M173525 [2]) [µg/mL]	MIC MRSA M180920 (MRSA M180920) [µg/mL]	Percentage of Inhibition of Initial MRSA Cells Attachment, CV (MRSA M173525 [3]; 0.5 × MIC) [%]	Percentage of Inhibition of Initial MRSA Cells Attachment, MTT (MRSA M173525 [3]; 0.5 × MIC) [%]	Percentage of Inhibition of Initial MRSA Cells Attachment, CV (MRSA M173525 [3]; 1 × MIC) [%]	Percentage of Inhibition of Initial MRSA Cells Attachment, MTT (MRSA M173525 [3]; 1 × MIC) [%]	Percentage of Inhibition of Initial MRSA Cells Attachment, CV (MRSA M173525 [3]; 2 × MIC) [%]	Percentage of Inhibition of Initial MRSA Cells Attachment, MTT (MRSA M173525 [3]; 2 × MIC)	MIC C. albicans FRR 5580 (C. albicans FRR 5580) [µg/mL]
CC(C)[C@H](NC(=O)[C@@H]1CCCN1C(=O)[C@@H](N)Cc1ccccc1)C(=O)N[C@H](C(=O)N[C@@H](Cc1c[nH]c2ccccc12)C(=O)N[C@@H](CCCNC(=N)N)C(=O)N[C@@H](Cc1c[nH]c2ccccc12)C(=O)N[C@@H](Cc1c[nH]c2ccccc12)C(=O)N[C@@H](CCCCN)C(=O)N[C@@H](Cc1c[nH]c2ccccc12)C(=O)N[C@@H](Cc1c[nH]c2ccccc12)C(=O)N[C@@H](CCCCN)C(=O)NCC(N)=O)[C@@H](C)O [PuroA]	64 (≈ 34.4 µM)	Unstable	16 (≈ 8.59 µM)	16 (≈ 8.59 µM)	70 ± 5.6	92 ± 1.5	75 ± 4.0	95 ± 1.1	79 ± 4.5	95% and 95 ± 0.5%	125 (≈ 67.1 µM)
RKRWWRWWKWWKR-NH2 [Peptide P1]	16	Unstable	16	8	72 ± 3.1	92 ± 3.0	75 ± 1.9	95 ± 2.3	78 ± 6.1	95 ± 2.5%	64
WRWWKWW-NH2 [Peptide W7]	32	Unstable	8	8	69 ± 3.6	90 ± 2.9	75 ± 5.0	95 ± 4.0	76 ± 4.8	96 ± 1.5%	64
WWRWWKWW-NH2 [WW]	32	Unstable	4	4	71.5 ± 3.5	90 ± 2.0	73 ± 6.2	95 ± 3.1	79 ± 7.5	96 ± 0.5%	64
